Where “and” joins values, the source holds several entries; their conditions need not be identical. Equal values may be shown once.
Key:
DRD3 [1] = target: T1, DRD3 (Homo sapiens, UniProt P35462); assay: β-arrestin2 recruitment (Tango); type: cell-based
DRD3 [2] = target: T1, DRD3; assay: Gαi/o-mediated cAMP inhibition (GloSensor); type: cell-based; settings: DRD3, cAMP inhibition
DRD2 F1103.28L = target: T2, DRD2 F1103.28L (Homo sapiens, UniProt P14416, F110L); assay: Gαi/o-mediated cAMP inhibition (GloSensor), mutant; type: cell-based; settings: DRD2 F1103.28L (b138 head prints DRD2 F1063.28L)
T2 construct: expressed in transfected cells; host or cells: HEK293T (ATCC CRL-11268)

[3] = system: serotonin receptor of Fig_S10g (subtype not named); assay: β-arrestin2 recruitment (Tango), agonist activity, panel Fig_S10g (serotonin as reference; receptor not given); type: cell-based, human
[4] = target: T3, DRD4 (D4.4 variant) wild-type (Homo sapiens, UniProt P21917); assay: Radioligand competition binding, [3H]-N-methylspiperone; settings: DRD4; [3H]-methylspiperone (0.8-1.0 nM); read-out: Ki
T3 sequence (P21917 1-419): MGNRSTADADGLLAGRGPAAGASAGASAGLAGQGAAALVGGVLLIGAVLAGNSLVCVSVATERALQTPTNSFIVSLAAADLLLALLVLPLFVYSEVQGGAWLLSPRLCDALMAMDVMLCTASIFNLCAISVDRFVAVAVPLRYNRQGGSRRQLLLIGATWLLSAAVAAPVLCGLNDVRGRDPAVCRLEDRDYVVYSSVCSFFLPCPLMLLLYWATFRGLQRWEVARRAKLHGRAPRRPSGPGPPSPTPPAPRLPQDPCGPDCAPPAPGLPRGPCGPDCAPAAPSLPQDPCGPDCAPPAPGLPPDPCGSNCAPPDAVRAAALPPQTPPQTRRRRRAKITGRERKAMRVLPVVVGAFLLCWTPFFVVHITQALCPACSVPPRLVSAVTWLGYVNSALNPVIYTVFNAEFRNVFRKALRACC

T1 sequence (P35462 whole entry): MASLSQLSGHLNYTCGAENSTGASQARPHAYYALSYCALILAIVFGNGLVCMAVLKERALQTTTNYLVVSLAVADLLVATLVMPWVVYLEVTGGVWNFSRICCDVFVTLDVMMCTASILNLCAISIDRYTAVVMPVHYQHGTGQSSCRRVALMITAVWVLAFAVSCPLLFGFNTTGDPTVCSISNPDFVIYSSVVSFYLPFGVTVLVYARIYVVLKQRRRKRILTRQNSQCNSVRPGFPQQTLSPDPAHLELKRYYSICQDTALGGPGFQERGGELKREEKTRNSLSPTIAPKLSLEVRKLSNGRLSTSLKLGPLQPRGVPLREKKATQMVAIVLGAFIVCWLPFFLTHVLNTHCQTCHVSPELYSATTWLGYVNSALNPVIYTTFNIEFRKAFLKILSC
T2 sequence (P14416 whole entry F110L): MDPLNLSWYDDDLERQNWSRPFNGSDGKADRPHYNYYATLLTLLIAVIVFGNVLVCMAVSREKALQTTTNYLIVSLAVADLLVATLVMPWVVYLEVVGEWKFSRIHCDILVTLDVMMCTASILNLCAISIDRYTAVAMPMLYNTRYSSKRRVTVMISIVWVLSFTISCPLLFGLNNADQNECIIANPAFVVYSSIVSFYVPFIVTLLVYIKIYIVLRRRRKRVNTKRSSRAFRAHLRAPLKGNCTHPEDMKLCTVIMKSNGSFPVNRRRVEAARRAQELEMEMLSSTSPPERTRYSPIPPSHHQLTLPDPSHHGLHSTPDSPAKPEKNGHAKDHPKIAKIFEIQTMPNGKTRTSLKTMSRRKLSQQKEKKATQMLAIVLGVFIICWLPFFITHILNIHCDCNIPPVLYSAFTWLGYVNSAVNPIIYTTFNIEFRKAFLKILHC

CCOc1cccc2cc([C@H](C)NCC3(O)CCCCC3)oc12 [O4SE6]
β-arrestin2 recruitment response at DRD3 (source data, replicate values) (DRD3 [1]; Log[Drug] -6): 12.3452
β-arrestin2 recruitment response at DRD3 (source data, replicate values) (DRD3 [1]; Log[Drug] -6.52): 8.082 and 5.965 and 11.0149 and 19.9759 and 10.9551 and 9.221 and 9.014 and 7.197 and 16.9834
β-arrestin2 recruitment response at DRD3 (source data, replicate values) (DRD3 [1]; Log[Drug] -7): 8.647 and 6.889 and 5.419 and 8.207 and 5.755 and 6.315 and 4.579 and 5.095 and 7.56
β-arrestin2 recruitment response at DRD3 (source data, replicate values) (DRD3 [1]; Log[Drug] -7.52): 4.34 and 0.6022 and 1.762 and 2.508 and 1.167 and 1.071 and 1.816 and 2.855 and 3.052
β-arrestin2 recruitment response at DRD3 (source data, replicate values) (DRD3 [1]; Log[Drug] -8): 0.7316 and 0.3304 and 1.058 and 0.6729 and 0.7789 and 1.51 and 1.953 and 1.946 and 0.2868
β-arrestin2 recruitment response at DRD3 (source data, replicate values) (DRD3 [1]; Log[Drug] -8.52): 1.063 and 0.9542 and 0.434 and 0.6781 and 0.1637 and 0.2619 and 0.09244 and 0.8182 and 0.08985
β-arrestin2 recruitment response at DRD3 (source data, replicate values) (DRD3 [1]; Log[Drug] -9): -0.1872 and 1.166 and 0.6488 and 0.05773 and 0.4739 and 2.133 and -0.01123 and 0.2998 and -0.1097
β-arrestin2 recruitment response at DRD3 (source data, replicate values) (DRD3 [1]; Log[Drug] -9.52): 0.6514 and 0.02761 and -0.07333 and 1.513 and -0.1516 and 0.7866 and 1.233 and 1.648 and 0.09503
β-arrestin2 recruitment response at DRD3 (source data, replicate values) (DRD3 [1]; Log[Drug] -10): 1.257 and -0.3865 and -0.07075 and 0.2387 and 0.7918 and -0.1413 and 0.6108 and 0.3983 and -0.4207
β-arrestin2 recruitment response at DRD3 (source data, replicate values) (DRD3 [1]; Log[Drug] -10.52): 3.755 and 0.333 and -0.07333 and 2.441 and 0.1379 and -0.03791 and 0.1961 and 1.7564 and 0.1754
β-arrestin2 recruitment response at DRD3 (source data, replicate values) (DRD3 [1]; Log[Drug] -11): 0.522 and -0.07333 and -0.1743 and 0.2309 and 5.954 and 1.288 and -0.4182 and -0.01901 and 1.549
β-arrestin2 recruitment response at DRD3 (source data, replicate values) (DRD3 [1]; Log[Drug] -11.52): 1.588 and -0.07592 and 0.1337 and 0.3757 and 0.0448 and -0.03791 and 0.4061 and 1.448 and -0.2186
EC50 (DRD3 [2]; agonist, read-out: EC50 ± SEM): > 10 µM
G protein agonist activity (DRD3 [2]): no detectable agonist activity
EC50 (DRD2 F1103.28L): > 10 µM
response, single replicate of concentration-response curve ([3]; Log[Drug] -6.52, drug alone): -6.59
response, single replicate of concentration-response curve ([3]; Log[Drug] -7, drug alone): -3.19 and -7.082 and 4.545 and 9.195 and -2.738 and -3.211 and 7.129 and -1.468 and 1.444
response, single replicate of concentration-response curve ([3]; Log[Drug] -7.52, drug alone): -9.03 and -3.911 and 11.866 and -9.097 and -3.819 and 15.0981 and -7.146 and 2.056 and -13.2444
response, single replicate of concentration-response curve ([3]; Log[Drug] -8, drug alone): -6.944 and -3.717 and -3.146 and 13.9874 and -6.035 and -6.807 and 15.6877 and -18.2271 and -10.0032
response, single replicate of concentration-response curve ([3]; Log[Drug] -8.52, drug alone): -4.818 and -1.578 and 1.598 and 2.984 and 0.747 and -7.738 and -15.1053 and -13.4017 and -9.68
response, single replicate of concentration-response curve ([3]; Log[Drug] -9, drug alone): -4.766 and 4.75 and -7.577 and 4.415 and 0.09191 and 14.1047 and 1.581 and -6.014 and 1.453
response, single replicate of concentration-response curve ([3]; Log[Drug] -9.52, drug alone): -5.307 and -4.4569 and -8.217 and -4.562 and -1.4705 and 8.897 and -2.656 and -20.9208 and -10.1255
response, single replicate of concentration-response curve ([3]; Log[Drug] -10, drug alone): -5.416 and -3.999 and 8.581 and -6.089 and 12.3409 and -9.7675 and -12.7406 and -13.5007 and -15.0762
response, single replicate of concentration-response curve ([3]; Log[Drug] -10.52, drug alone): -6.121 and -0.8987 and -0.5671 and -2.839 and 2.161 and 0.6785 and -9.456 and -4.939 and -9.345
response, single replicate of concentration-response curve ([3]; Log[Drug] -11, drug alone): -4.41 and -4.674 and 2.4299 and -4.435 and -1.821 and -1.439 and -6.281 and -6.238 and -10.7545
response, single replicate of concentration-response curve ([3]; Log[Drug] -11.52, drug alone): -9.9476 and -4.984 and -8.874 and -7.243 and 10.0217 and 14.7168 and -21.4945 and -11.4709 and -8.23
response, single replicate of concentration-response curve ([3]; Log[Drug] -12, drug alone): 2.568 and -7.302 and 4.735 and 18.6257 and 12.38 and 36.6159 and 18.9202 and -0.5417 and 1.31
Ki [4]: > 10 µM

Source: article PMC7044277 (Nature Communications, 2020)
